Assays:
[1] = test system: G-quadruplex of oligonucleotide GGGTTAGGGTTAGGGTTAGGG (3.5 repeats of the human telomereic motif); test: G-quadruplex stabilizing activity, fluorescence Tm (FAM+DABCYL oligonucleotide); format: binding
Outline: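 FAM/DABCYL-labelled telomeric oligonucleotide (0.2 μM strand) in 10 mM sodium cacodylate pH 7.6 with 0.1 M LiCl (or NaCl) was annealed, then incubated ≥1 h at 20 °C with compound at 1 μM final. Samples were heated 20→80 °C, with excitation at 470 nm and emission at 515/588 nm. Tm is the 515 nm emission midpoint.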

[2] = test system: human telomerease (HL60 cell extract); test: Antitelomerease activity: extension of oligonucleotide TS followed by PCR amplification, with HL60 extract; format: biochemical; settings: read-out: TRAP IC50
Outline: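 HL60 CHAPS-lysate extract extends TS primer (15 min, 30 °C) with compound at 10, 1, 0.1 and 0.01 µM, followed by 30-cycle PCR with TS and CXext. Products resolved on 12% acrylamide and quantified; % inhibition versus enzyme control and blank, IC50 read from semilog plot.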

| Structure (SMILES) | G4 delta Tm [1] | IC50 [2] |
| --- | --- | --- |
| Cc1cc(N(C)C)c2cc(Nc3nc(NCc4ccncc4)nc(Nc4ccc5nc(C)cc(N(C)C)c5c4)n3)ccc2n1 [Example 27, 2,4-bis(4-dimethylamino-2-methylquinolin-6-yl)amino-6-(pyridin-4-yl)methylamino-[1,3,5]triazine] | 11.0 °C | 600 nM |
| Cc1cc(N(C)C)c2cc(Nc3nc(Nc4ccc5nc(C)cc(N(C)C)c5c4)nc(Oc4ccncc4)n3)ccc2n1 [Example 115, 2,4-bis(4-dimethylamino-2-methylquinolin-6-yl)amino-6-(pyridin-4-yl)oxy-[1,3,5]triazine] | 13 °C | 500 nM |
